The target of one experiment is CK1g3 (Homo sapiens, UniProt Q9Y6M4). Kind of experiment: KiNativ, OCI cells live cell. The experiment is classed as cell-based. The note with it: labeling site Lys2, peptide DVKPENFLIGRPGNK
Another experiment addresses CCRK (Homo sapiens, UniProt Q8IZL9). Kind of experiment: KiNativ, MOLM13 live cells. Format: cell-based. The following applies: MOLM-13; 100 nM, 2 hours; Lys2; read-out: Inhibition vs DMSO. The procedure: (§1) Samples were analyzed by KiNativ in situ kinase profiling by ActivX Biosciences.
The next experiment has as its target p38a (Homo sapiens, UniProt Q16539). Kind of experiment: KiNativ, MOLM13 live cells. Format: cell-based. The note with it: 100 nM, 2 hours. How it is done: as §1
A further experiment deals with T1, TYK2 domain2 (Homo sapiens, UniProt P29597).
T1 construct: TYK2 domain2
Kind of experiment: KiNativ, MOLM13 live cells. The experiment is classed as cell-based. The following applies: 100 nM, 2 hours; Activation Loop. The procedure: as §1

Another experiment deals with PCTAIRE2 (Homo sapiens, UniProt Q00537). Kind of experiment: KiNativ, MOLM13 live cells. The experiment is classed as cell-based. The note with it: MOLM-13; 100 nM, 2 hours; Lys2; read-out: Inhibition vs DMSO. The procedure: as §1
The next experiment concerns the target CDK7 (Homo sapiens, UniProt P50613). Kind of experiment: KiNativ, MOLM13 live cells. The experiment is classed as cell-based. The note with it: MOLM-13; 100 nM, 2 hours; Lys2; read-out: Inhibition vs DMSO. How it is done: as §1
A further experiment has as its target NEK4 (Homo sapiens, UniProt P51957). As to the kind of experiment: KiNativ, MOLM13 live cells. The experiment is classed as cell-based. The following applies: MOLM-13; 100 nM, 2 hours; Lys2; read-out: Inhibition vs DMSO. How it is done: as §1
For another experiment, the target named is T2, NEK9 (Homo sapiens, UniProt Q8TD19).
T2 sequence (Q8TD19 1-979): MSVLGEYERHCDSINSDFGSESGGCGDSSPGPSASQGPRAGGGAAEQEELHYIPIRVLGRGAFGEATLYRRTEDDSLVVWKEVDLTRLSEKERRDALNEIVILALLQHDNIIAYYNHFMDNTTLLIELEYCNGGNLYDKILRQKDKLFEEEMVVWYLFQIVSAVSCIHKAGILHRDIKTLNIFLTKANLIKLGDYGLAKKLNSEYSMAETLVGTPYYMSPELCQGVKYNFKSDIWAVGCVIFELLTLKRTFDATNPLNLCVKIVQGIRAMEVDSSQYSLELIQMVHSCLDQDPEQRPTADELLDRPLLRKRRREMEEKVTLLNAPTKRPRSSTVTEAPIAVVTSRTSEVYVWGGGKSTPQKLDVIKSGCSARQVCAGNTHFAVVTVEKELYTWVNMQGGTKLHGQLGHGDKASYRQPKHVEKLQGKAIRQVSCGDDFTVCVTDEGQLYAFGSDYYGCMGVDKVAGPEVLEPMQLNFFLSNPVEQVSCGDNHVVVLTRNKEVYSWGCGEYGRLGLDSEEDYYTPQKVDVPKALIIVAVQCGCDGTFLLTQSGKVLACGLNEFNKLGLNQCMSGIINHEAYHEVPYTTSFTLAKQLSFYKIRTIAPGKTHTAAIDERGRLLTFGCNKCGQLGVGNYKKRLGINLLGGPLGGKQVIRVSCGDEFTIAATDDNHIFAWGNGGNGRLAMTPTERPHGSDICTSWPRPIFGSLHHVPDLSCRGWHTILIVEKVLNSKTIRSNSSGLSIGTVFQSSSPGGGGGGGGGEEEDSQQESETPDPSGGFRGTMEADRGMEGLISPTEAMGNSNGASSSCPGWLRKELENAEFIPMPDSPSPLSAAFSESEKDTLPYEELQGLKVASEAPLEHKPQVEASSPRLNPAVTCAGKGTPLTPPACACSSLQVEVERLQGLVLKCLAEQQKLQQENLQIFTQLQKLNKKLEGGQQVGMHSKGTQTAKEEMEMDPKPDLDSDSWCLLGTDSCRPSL
Kind of experiment: KiNativ, MOLM13 live cells. Format: cell-based. The following applies: MOLM-13, 2 h, 100 nM. The procedure:
as §1

In the next experiment the target is MAP2K7 (Homo sapiens, UniProt O14733). Kind of experiment: KiNativ, MOLM13 live cells. Format: cell-based. The note with it: 100 nM, 2 hours; Lys2. The procedure:
as §1

The next experiment addresses KSR1 (Homo sapiens, UniProt Q8IVT5). As to the kind of experiment: KiNativ, MOLM13 live cells. Format: cell-based. The following applies: MOLM-13; 100 nM, 2 hours; Activation Loop; read-out: Inhibition vs DMSO. How it is done: as §1
For a further experiment, the target named is T3, JAK1 domain1 (Homo sapiens, UniProt P23458).
T3 construct: JAK1 domain1
As to the kind of experiment: KiNativ, MOLM13 live cells. Format: cell-based. The following applies: 100 nM, 2 hours; Activation Loop. How it is done:
as §1

The next experiment concerns the target CaMK1a (Homo sapiens, UniProt Q14012). As to the kind of experiment: KiNativ, OCI cells live cell. Format: cell-based. The note with it: 2 h.
In another experiment the target is T4, JAK1 (Homo sapiens, UniProt P23458).
T4 construct: purchased Eurofins DiscoverX
Kind of experiment: KdELECT binding assay.

The target of another experiment is T5, TLK1 (Homo sapiens, UniProt Q9UKI8).
T5 sequence (Q9UKI8 1-766): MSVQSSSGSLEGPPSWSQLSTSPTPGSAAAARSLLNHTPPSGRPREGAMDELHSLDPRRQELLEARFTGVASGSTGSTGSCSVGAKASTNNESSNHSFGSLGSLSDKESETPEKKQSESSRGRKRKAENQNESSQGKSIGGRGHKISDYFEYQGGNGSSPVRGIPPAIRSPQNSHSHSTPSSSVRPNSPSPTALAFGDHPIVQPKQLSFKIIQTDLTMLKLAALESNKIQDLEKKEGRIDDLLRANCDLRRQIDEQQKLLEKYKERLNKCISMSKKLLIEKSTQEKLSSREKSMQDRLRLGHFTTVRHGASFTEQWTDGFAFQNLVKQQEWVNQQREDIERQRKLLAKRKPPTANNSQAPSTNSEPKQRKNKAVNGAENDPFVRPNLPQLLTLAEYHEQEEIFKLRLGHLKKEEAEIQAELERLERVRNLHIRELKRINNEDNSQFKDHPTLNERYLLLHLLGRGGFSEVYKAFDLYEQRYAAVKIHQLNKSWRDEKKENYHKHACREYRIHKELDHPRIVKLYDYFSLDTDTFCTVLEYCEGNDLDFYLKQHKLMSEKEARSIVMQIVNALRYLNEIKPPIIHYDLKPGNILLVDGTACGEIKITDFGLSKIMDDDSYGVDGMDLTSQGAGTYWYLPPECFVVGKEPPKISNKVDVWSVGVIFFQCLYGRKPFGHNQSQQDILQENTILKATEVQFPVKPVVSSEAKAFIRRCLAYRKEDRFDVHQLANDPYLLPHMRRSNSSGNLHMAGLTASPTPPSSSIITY
As to the kind of experiment: KiNativ, OCI cells live cell. The experiment is classed as cell-based. The following applies: 2 h.

pKd: −log10 of the molar value. Read-outs that look alike come from different tables or passages of the source.

Chain of p38a (Q16539 whole entry, the tested form may be a part): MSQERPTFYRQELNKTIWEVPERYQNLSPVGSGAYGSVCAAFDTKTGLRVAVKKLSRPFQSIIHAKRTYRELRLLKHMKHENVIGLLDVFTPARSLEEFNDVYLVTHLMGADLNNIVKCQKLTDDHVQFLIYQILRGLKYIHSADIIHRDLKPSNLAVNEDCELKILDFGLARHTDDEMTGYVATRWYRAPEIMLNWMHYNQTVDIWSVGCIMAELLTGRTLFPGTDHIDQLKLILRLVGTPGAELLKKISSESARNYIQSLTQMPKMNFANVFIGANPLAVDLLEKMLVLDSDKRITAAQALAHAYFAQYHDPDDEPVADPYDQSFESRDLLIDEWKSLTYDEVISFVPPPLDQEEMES
Chain of CaMK1a (Q14012 whole entry): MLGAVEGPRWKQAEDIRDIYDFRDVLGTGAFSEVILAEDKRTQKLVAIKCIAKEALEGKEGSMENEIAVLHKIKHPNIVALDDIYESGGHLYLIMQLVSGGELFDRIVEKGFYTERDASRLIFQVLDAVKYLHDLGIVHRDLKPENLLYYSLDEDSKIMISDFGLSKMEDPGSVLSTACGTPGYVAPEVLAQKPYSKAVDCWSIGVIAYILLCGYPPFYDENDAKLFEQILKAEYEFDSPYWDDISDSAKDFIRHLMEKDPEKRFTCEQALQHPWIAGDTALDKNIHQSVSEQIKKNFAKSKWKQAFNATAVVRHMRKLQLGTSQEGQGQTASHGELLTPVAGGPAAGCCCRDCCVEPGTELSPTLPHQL
Chain of KSR1 (Q8IVT5 whole entry, the tested form may be a part): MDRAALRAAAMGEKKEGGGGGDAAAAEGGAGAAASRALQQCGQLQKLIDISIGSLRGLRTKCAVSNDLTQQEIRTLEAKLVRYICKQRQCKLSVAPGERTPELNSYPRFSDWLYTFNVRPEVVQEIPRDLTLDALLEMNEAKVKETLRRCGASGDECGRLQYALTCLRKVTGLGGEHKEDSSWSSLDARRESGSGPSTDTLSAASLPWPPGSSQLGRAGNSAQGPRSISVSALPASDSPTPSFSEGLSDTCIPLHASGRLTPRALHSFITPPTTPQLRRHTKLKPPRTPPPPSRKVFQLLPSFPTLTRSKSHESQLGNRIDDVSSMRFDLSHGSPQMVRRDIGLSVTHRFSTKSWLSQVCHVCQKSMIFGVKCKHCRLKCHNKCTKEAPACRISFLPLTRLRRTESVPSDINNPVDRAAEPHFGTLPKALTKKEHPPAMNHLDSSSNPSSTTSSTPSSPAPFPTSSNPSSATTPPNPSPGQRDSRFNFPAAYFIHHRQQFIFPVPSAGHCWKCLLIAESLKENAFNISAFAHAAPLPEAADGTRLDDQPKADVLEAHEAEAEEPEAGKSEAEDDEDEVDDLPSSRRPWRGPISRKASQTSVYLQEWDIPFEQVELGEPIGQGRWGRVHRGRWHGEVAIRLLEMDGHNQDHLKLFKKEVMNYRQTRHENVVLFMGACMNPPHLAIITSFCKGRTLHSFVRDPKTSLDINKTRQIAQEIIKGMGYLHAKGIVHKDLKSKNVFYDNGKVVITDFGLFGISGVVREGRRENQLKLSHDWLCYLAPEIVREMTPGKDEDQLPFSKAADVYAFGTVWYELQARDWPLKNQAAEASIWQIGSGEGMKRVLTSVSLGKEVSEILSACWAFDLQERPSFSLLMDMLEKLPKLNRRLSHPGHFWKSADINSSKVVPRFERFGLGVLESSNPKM
Chain of PCTAIRE2 (Q00537 whole entry): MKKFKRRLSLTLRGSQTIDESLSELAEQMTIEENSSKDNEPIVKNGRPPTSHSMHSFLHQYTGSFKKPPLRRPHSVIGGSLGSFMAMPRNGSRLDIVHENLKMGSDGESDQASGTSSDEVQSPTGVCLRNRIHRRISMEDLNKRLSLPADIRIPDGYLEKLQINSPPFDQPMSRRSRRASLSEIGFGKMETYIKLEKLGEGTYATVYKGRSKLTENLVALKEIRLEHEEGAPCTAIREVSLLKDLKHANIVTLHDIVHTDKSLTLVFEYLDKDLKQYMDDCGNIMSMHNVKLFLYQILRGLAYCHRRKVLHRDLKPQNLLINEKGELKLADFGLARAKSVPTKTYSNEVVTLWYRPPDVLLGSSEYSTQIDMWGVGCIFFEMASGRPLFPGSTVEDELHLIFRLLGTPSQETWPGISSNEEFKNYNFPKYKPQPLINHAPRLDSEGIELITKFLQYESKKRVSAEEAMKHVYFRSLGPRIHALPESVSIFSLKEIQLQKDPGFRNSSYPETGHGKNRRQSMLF
Chain of CK1g3 (Q9Y6M4 whole entry): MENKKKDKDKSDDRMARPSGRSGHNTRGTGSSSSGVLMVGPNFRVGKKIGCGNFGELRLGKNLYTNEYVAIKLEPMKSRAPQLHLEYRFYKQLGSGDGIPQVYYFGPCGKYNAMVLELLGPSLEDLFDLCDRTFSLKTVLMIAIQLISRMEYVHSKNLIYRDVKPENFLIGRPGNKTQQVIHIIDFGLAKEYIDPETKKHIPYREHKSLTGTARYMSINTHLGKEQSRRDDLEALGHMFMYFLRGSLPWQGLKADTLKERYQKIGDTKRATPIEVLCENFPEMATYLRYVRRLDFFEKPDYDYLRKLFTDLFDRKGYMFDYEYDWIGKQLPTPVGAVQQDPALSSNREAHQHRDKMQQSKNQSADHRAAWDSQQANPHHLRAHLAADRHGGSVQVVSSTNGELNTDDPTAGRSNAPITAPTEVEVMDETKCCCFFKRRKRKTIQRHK
Chain of NEK4 (P51957 whole entry): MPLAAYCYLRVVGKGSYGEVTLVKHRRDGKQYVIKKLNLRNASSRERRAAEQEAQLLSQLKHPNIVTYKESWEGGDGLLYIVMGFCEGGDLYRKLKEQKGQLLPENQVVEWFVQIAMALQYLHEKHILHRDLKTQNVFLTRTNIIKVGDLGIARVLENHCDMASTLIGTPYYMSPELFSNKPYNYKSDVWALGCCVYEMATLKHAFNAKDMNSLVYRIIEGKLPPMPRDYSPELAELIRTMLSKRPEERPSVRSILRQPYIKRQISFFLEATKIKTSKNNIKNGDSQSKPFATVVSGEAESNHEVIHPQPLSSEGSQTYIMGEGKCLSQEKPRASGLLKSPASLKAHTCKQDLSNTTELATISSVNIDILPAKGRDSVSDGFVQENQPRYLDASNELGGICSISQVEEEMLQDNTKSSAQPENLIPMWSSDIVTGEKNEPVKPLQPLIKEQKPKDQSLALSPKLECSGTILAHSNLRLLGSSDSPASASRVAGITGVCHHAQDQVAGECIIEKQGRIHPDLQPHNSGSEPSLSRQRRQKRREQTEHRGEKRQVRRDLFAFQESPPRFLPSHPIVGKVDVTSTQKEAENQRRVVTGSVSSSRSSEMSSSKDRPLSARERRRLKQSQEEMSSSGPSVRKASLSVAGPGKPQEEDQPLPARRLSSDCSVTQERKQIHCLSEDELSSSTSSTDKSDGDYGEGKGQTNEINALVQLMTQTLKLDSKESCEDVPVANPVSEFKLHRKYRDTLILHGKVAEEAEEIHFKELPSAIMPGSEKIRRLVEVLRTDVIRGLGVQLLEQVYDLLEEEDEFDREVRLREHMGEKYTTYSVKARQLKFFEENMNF
Chain of MAP2K7 (O14733 whole entry): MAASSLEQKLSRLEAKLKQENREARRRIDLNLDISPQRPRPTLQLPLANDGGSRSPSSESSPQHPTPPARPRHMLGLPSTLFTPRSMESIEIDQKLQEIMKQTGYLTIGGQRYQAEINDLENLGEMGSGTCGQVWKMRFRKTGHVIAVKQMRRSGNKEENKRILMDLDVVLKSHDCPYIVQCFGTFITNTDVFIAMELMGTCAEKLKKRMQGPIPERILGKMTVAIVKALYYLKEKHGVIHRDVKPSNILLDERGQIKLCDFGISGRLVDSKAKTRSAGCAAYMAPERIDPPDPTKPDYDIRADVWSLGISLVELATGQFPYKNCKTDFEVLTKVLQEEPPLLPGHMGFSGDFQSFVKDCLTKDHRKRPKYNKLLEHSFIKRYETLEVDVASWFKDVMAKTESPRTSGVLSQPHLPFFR
T4 sequence (P23458 whole entry): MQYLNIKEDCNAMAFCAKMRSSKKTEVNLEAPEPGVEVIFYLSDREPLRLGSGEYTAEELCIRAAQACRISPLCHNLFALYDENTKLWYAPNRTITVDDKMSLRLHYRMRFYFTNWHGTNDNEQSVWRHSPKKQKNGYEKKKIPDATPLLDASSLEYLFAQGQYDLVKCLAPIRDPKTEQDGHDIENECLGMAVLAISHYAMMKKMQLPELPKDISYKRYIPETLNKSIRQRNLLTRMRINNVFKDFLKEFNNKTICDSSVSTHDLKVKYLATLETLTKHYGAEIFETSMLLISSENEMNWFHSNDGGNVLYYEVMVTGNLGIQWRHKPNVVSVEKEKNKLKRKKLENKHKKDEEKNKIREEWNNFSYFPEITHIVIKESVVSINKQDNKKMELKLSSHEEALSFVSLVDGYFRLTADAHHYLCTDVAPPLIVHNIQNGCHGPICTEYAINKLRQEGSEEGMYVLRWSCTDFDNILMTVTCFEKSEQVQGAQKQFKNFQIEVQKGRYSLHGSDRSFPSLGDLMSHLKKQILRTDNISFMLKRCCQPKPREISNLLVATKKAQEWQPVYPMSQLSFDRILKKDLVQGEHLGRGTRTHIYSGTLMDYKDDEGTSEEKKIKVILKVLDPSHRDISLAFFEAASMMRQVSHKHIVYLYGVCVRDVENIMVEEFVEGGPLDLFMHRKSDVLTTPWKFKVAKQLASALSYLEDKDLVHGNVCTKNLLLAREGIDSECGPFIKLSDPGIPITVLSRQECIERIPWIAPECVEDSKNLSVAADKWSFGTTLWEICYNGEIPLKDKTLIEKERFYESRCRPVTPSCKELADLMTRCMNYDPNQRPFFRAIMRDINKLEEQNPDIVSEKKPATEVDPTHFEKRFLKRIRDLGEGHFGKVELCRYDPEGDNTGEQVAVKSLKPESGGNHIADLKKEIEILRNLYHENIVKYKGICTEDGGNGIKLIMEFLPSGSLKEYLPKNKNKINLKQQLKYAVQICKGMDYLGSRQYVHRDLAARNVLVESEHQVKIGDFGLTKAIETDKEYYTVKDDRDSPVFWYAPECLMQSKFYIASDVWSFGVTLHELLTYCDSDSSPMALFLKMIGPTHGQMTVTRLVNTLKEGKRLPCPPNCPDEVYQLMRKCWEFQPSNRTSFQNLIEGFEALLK

Usually Inhibition stands for the drop in the measured response relative to a control, in per cent. Broadly, the inhibition is the relative decrease from the control value, in per cent. Broadly, the pKd is the negative decadic logarithm of the Kd, by convention in mol/L. A lower pKd goes with a high Kd. On to `CN1CCN(Cc2ccc(Nc3ncc(Cl)c(Nc4ccccc4S(=O)(=O)N(C)C)n3)cc2)CC1` [TP-0903], for which, at CK1g3, the Inhibition is -14.0%. The inhibition at 0.1 µM at CCRK was 68.3%; on PCTAIRE2, 20.4%; on CDK7 it was 86.1%; at NEK4, -23.8%; at NEK9 (Activation Loop, read-out: Inhibition vs DMSO), 45.7%; at NEK9 (Lys1, read-out: Inhibition vs DMSO), 48%. The inhibition at 0.1 µM is 48.8% at NEK9 (Lys2, read-out: Inhibition vs DMSO); -11% on KSR1; -6.6% against CaMK1a (labeling site Lys1, peptide LVAIKCIAK); -19.1% on CaMK1a (labeling site Lys2, peptide DLKPENLLYYSLDEDSK); -15.2% on TLK1 (labeling site Lys1, peptide YAAVKIHQLNK); -2.5% against TLK1 (labeling site Lys2, peptide YLNEIKPPIIHYDLKPGNILLVDGTACGEIK). The “Inhibition vs DMSO” value on p38a (Lys2) is on record as -1.9%; on p38a (Other), 17.3%; at TYK2 domain2 it was -0.9%; at MAP2K7 it was -0.0231%; on JAK1 domain1, 82.7%. At JAK1, the pKd is 7.64.
